In patent US9079896B2, “Urotensin II receptor antagonists” (Janssen Pharmaceutica NV, priority 2008, dated 2015) one finds EC50, Ki and IC50 data, which are given here for four compounds.

In assay [1] the target is T1, rat GPR14 (U-II receptor) (Rattus norvegicus, UniProt P49684).
T1 construct: expressed in transfected cells
T1 sequence (P49684 1-386): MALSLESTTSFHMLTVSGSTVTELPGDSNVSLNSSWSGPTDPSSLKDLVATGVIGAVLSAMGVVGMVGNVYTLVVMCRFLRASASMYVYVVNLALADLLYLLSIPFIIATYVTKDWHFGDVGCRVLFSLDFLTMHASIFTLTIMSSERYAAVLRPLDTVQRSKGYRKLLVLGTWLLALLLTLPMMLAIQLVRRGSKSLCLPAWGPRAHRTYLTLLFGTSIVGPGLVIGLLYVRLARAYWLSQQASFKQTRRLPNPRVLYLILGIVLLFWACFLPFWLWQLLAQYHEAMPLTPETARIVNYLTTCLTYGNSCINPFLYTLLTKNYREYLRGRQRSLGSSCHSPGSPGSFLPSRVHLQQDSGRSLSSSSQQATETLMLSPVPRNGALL
Conditions: agonist cyclic peptide used in the assay; read-out: FLIPR EC50; cited from earlier work.

The next assay deals with T2, rU-II (Rattus norvegicus, UniProt P49684).
T2 sequence (P49684 1-386): T1 sequence (P49684 1-386)
Conditions: agonist cyclic peptide used in the assay; cited from earlier work.

Assay [2] has as its target T1, rat GPR14 (U-II receptor). The experiment in a line: Rat UII Calcium Mobilization FLIPR Assay. It is filed as cell-based. Conditions: antagonist activity after 5 min incubation vs agonist (Ac)-CFWK(2-NaI)C-NH2 at 1 nM; CHO cells transfected with rat GPR14. An excerpt:
A calcium mobilization assay based on a Fluorescence Imaging Plate
Res. Commun. 1995, 209, 752-759. A. Marchese, M. Heiber, T. Nguyen, H. H. Heng, V. R. Saldivia, R. Cheng, P. M. Murphy, L. C. Tsui, X. Shi, P. Gregor, Genomics 1995, 29, 335-344.).
To derive these cells, the complete coding sequence of rat U-II (Genbank Accession No. U32673) was amplified by nested PCR from rat heart marathon-Ready cDNA. […] The PCR products were cloned into pcDNA3 (Invitrogen) digested with EcoR I and Xba I. Clones containing rat U-II receptor were verified by complete sequencing of the U-II receptor insert to ensure a lack of PCR-introduced errors. The constructed vector was transfected into CHO cells by using lipofectamine (GIBCO BRL). CHO cells with high expression of rat U-II receptor were selected and established as stable cell lines by using G418. CHO cells were seeded at 25,000 cells per well into 96-well, black-wall, clear-bottom microtiter plates 24 h before assay. Cells in culture media (DMEM/F12 containing 15 mM HEPES, L-glutamine, pyridoxine hydrochloride; 10% fetal bovine serum; 1 mg/mL G418 sulfate; antibiotic-antimycotic; pH 7.4) were loaded with proprietary dye, from the FLIPR Calcium Assay Kit (Molecular Devices), prepared in assay buffer (Hanks Balanced Salts Solution, 20 mM HEPES, 0.1% BSA, 2.5 mM probenecid, pH 7.4), and incubated for 1 h at 37° C. […]
On the technique in general: Calcium flux is commonly read through the fluorescence of an indicator in the cells.

Assay [3] addresses T3, Human UII (6D9 human rhabdomyosarcoma cells) (Homo sapiens, UniProt Q9UKP6).
T3 construct: 6D9: isolated by dilution subcloning of RMS13 cells; host or cells: 6D9 human rhabdomyosarcoma cells (subclone of RMS13)
T3 sequence (Q9UKP6 1-389): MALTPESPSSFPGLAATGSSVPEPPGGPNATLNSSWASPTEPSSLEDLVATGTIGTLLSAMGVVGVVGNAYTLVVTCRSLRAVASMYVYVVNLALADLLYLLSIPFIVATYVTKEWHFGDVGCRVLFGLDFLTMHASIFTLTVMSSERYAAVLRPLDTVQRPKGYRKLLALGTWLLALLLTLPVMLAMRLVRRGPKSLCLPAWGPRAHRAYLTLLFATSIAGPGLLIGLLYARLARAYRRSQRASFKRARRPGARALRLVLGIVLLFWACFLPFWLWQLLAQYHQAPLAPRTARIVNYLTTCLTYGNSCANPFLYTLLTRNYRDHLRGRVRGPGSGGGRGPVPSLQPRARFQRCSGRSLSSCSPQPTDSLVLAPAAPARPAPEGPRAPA
The experiment in a line: Human UII Calcium Mobilization Assay. It counts as cell-based. As to conditions: FLIPR TETRA, column head prints Ki (μM), read-out: Human UII Ca+ Mobilization Average IC50. The procedure: 25 μL of dye solution was added to the wells such that the final liquid volume before agonist/antagonist treatment was 50 μL for all assays. The cell plates were incubated at 37° C. for 45 minutes and the fluorescence intensity was measured on a Fluorometric Imaging Plate Reader (FLIPR^TETRA, Molecular Devices, Sunnyvale, Calif.).
Antagonist and agonist U-II were added at room temperature on the FLIPR^TETRA, and the fluorescence intensity before and after addition was measured over a period of 4 minutes. The dye incubation time and temperature as well as instrument setting was adjusted so the fluorescence intensity could be compared between plates on the same day. EC50 and IC50 were analyzed using GraphPad Prism 4 software (GraphPad Software Inc., San Diego, Calif.).
For assays, U-II agonist, U-II antagonist and urantide were diluted with HBSS/HEPES containing 0.01% FBS.
Test compounds were dissolved in DMSO at 10 mM concentration. The serial dilutions were carried out in HBSS/HEPES. The highest final DMSO concentration was at 0.1%.

Assay [4] concerns the target T4, UT receptors in Human Skeletal Muscle Myoblasts (HSMM) (Homo sapiens, UniProt Q9UKP6).
T4 sequence (Q9UKP6 1-389): T3 sequence (Q9UKP6 1-389)
Conditions: read-out: Human UII Average Binding Ki; 0.150 nM (125I)-U-II, intact HSMM, 3 h, 25° C.

The test system of assay [5] is isolated arterial rings of rats and humans. As to conditions: read-out: EC50 (concentration-dependent contraction); cited from earlier work.

Some results are limits rather than exact numbers.

Consider (Ac)-CFWK(2-NaI)C—NH2, for which the EC50 in assay [1] was 0.54 ± 0.2 nM. Also, the Ki (as a rule, a dissociation constant, usually derived from enzyme kinetics or from competition with a known ligand) on rU-II is 0.12 ± 0.05 nM.
For `CCN1CCN(c2cccc3c2[C@H]2CCCC[C@H](c4ccc(OC)c(OC)c4)N2C3=O)CC1` [Compound 2, (R,R)-7-(3,4-Dimethoxy-phenyl)-1-(4-ethyl-piperazin-1-yl)-7,8,9,10,11,11a-hexahydro-azepino[2,1-a]isoindol-5-one], the Ki in assay [2] was 34 nM.
With `CCN1CCN(c2cccc3c2[C@H]2CCC[C@H](c4ccc(OC)c(OC)c4)N2C3=O)CC1` [Compound 1, (R,R)-4-(3,4-Dimethoxy-phenyl)-10-(4-ethyl-piperazin-1-yl)-1,3,4,10b-tetrahydro-2H-pyrido[2,1-a]isoindol-6-one], the Ki in assay [2] came out at 6 nM; in assay [4], 64 nM. Also, in assay [3], the IC50 – broadly, the midpoint of a concentration-inhibition curve – stood at 0.34 µM.
For the compound “AGTAD-cyclo(CFWKYC)-V [Goby U-II, urotensin-II isolated from the urophysis of the goby fish, a 12-mer]”, the EC50 in assay [5] is less than 1 nM.
